Laboratory results published in patent US20240369544A1, “MULTIVALENT GLYCAN SCAFFOLDS AND METHODS OF USE THEREOF” (NovAb, Inc., priority 2021, published 2024).
Where no end group is shown, it is not given here. The star is where a group is joined. αGalNAc = CC(=O)N[C@@H]1[C@@H](O)[C@@H](O)[C@@H](CO)O[C@@H]1*; GalNAcα = O-linked α-N-acetylgalactosamine

Assays:
[1] = target: T1, Peanut agglutinin lectin (PNA) (Arachis hypogaea, UniProt P02872); assay: Lectin assay of dendrimers on magnetic beads, PNA; assay type: binding; settings: dendrimers coupled to streptavidin magnetic beads; lectin at 2 μg/mL pre-complexed with Avidin-HRP
T1 sequence (P02872 whole entry, looked up): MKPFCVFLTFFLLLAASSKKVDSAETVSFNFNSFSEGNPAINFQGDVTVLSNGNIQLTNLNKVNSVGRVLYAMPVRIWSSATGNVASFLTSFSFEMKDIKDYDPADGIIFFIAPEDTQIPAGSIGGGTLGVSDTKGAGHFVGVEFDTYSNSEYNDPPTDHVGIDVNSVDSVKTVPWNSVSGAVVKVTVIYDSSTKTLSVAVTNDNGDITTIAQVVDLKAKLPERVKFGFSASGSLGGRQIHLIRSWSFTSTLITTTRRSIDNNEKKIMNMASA
Description: (§1) The Avidin-HRP was purchased from SouthemBiotech. […] 3 μL of dendrimer beads were used per assay.

[2] = test system: Vicia Villosa lectin (VVL); assay: Lectin assay of dendrimers on magnetic beads, VVL; assay type: binding; settings: dendrimers coupled to streptavidin magnetic beads; lectin at 2 μg/mL pre-complexed with Avidin-HRP
Description: as §1

[3] = test system: O13 YSD cells (yeast cells expressing the lamprey O13 VLRB anti-H3 antibody on their surface); assay type: binding
Description: The O13 YSD cells were then washed 3 times with ice-cold TSM-BSA, then resuspended in 250 μL TMS-BSA to which 1 μL of PI was added to stain live/dead cells. 125 μL of each sample were used for flow cytometry measurements.

[4] = target: anti-H3 antibody; assay: Dissociation constant of monomer H3:anti-H3 antibody interaction; assay type: binding
[5] = target: T2, Peanut agglutinin lectin (PNA), biotinylated, Vector Laboratories (Peanut, UniProt P02872 24-259, limits assumed, biotinylated (sites not given)); assay: lectin assay: dendrimer on streptavidin magnetic beads, biotinylated lectin pre-complexed with Avidin-HRP, TMB read-out
T2 construct: Lectin, described as specific for galactose as found in T-antigen; It was pre-complexed with Avidin-HRP for the assay
T2 sequence (looked up): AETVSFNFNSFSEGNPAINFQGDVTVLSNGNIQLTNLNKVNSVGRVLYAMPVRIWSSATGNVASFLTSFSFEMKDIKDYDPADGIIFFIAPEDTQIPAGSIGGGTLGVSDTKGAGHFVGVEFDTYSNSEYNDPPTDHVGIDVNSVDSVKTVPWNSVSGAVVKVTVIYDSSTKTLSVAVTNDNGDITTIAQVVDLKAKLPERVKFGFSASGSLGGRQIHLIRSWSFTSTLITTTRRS

In the case of “GP100120-dendrimers: Synthetic fibroin glycopeptide GP100120 (GAT*ES*RGAGAGA-NH2, GalNAc on Ser and Thr, SEQ ID NO:5) conjugated to 8-arm-PEG-NHS compound (GAT(αGalNAc)ES(αGalNAc)RGAGAGA-NH2; also: conjugated to 8-arm-PEG-NHS (dendrimer), site not given here)”, the “reactivity to PNA lectin” value [1] is reported as “negative” and the “reactivity to VVL lectin” value [2] is reported as “positive”.

For `CC(=O)N[C@H]1C(O)O[C@H](CO)[C@@H](O[C@@H]2O[C@H](CO)[C@H](O)[C@H](O)[C@H]2O[C@@H]2O[C@@H](C)[C@@H](O)[C@@H](O)[C@@H]2O)[C@@H]1O` (stereo partly drawn) [monomer H3, Blood group H type 2 trisaccharide], the “binding by O13 YSD cells (flow cytometry)” value [3] was “not detected”, the Kd [4] was 2000 nM and the “koff of monomer H3:anti-H3 antibody complex” value ([4]; from Kd=koff/kon with kon 10^6 M^−1 s^−1) was 2 s⁻¹.

B1: GP100120-dendrimer: synthetic fibroin glycopeptide GP100120 (GAT*ES*RGAGAGA-NH2) conjugated to 8-arm-PEG-NHS (7 arms NHS, 1 arm biotin) (peptide)
peptide: GAT(GalNAcα)ESRGAGAGA-NH2
modifications: not fully specified (residue 5); printed as GAT*ES*RGAGAGA-NH2; also: coupled through a primary amine to NHS arm of 8-arm PEG (7 NHS arms, 1 biotin arm), multivalent, copy number not given here
notes: The dendrimer was captured on streptavidin magnetic beads by its biotin; also called GP100121 glycopeptide dendrimer; GP100121 dendrimer
B1: no binding (tested: 2 µg/mL) [5].
